According to patent US20110097380A1, “CLONIDINE FORMULATIONS HAVING ANTIMICROBIAL PROPERTIES” (Warsaw Orthopedic, Inc., priority 2009, published 2011):

Experiments:
Assay in all cases: Film inoculated on Tryptic Soy Agar plate: growth, zone of inhibition, scraping/streak
Type in all cases: cell-based
Conditions in all cases: after 4 days
[1] = test system: Candida albicans ATCC 10231
Experimental: (§1) Each film sample was individually placed on the surface of a Tryptic Soy Agar (TSA) plate in an aseptic manner. Each film was individually inoculated with 1 mL of one of the three (3) challenge organisms shown below. For each challenge organism, one “Sample Film” and one “Control Film” were inoculated. Due to the anticipated slow absorption of the challenge inoculum by the test samples, the inoculum was dispensed onto each film sample very slowly. After inoculation, each sample was carefully moved to incubation at the temperature range appropriate for the inoculated challenge organism and incubated for four (4) days. Each day of incubation, all plates were removed from incubation for visual and stereoscopic evaluation. Upon evaluation, the presence or absence of growth on the plate and/or on the sample was noted. In addition, the sample was evaluated for the presence or absence of a zone of inhibition around the sample. The presence or absence of a zone was reported as “Z” for Zone (size in mm) or “NZ” for no zone present. [table] Additional Test Information: • G=Growth • NG=No Growth • Z=Zone (in mm) • NZ=No Zone • Additional Information/Observations: At the conclusion of the testing period, all test samples were individually removed from the agar surface and gently shaken to remove any excess moisture remaining on the surface of the sample. The samples were then individually examined under the stereoscope by a laboratory technician. […] Following the documentation of the observations above, each sample was scraped with an inoculating loop on the inoculated, top side of each sample to determine whether macroscopic growth could be visually observed. […] The following is a summary of findings from this portion of the test: […]

[2] = test system: Escherichia coli ATCC 8739
Experimental: as §1

[3] = test system: Staphylococcus aureus ATCC 6538
Experimental: as §1

Clc1cccc(Cl)c1N=C1NCCN1 [clonidine, 2,6-dichloro-N-2-imidazolidinyldenebenzenamine]
inhibited growth: growth of fungus (C. albicans) [1] | growth of gram negative bacteria (E. coli) [2] | growth of gram positive bacteria (S. aureus) [3]
